Measured values from patent US8378071B2, “Peptide epitopes of VEGFR-2/KDR that inhibit angiogenesis” (The United States of America as Represented by the …, priority 2005, dated 2013).

How the values were obtained:
HLA-A2 = target: T1, HLA-A2 (Homo sapiens, UniProt P04439, D140Y/D185E/D98H/E176V/E277Q/G131W/G231S/I119V/I121R/I166T/I218V/L300P/L318F/N151K/N90K/P208A/P217A/Q86G/Q94H/R138H/R169H/T345S); experiment: T2 binding assay (HLA-A2 stabilization); conditions: T2 cells, FIG. 7
T1 construct: endogenous in cells; host or cells: T2 cells
Source text: The ability of any of the above described peptides to bind MHC Class I can be confirmed using assays available in the art. For example, the ability of a murine VEGFR-2/KDR peptide to bind a mouse Class I molecule, such as H-2 Db can be determined in a MHC stabilization assay employing RMA-S cells as described in Lyman et al., J. Virol. 76:3125-3134, 2002, and in the EXAMPLES Section below. The ability of a human VEGFR-2/KDR peptide to bind a human Class I molecule, such as an HLA-A2 protein can be evaluated in a T2 MHC binding assay as described by Cerundolo et al., Nature 342:449-452, 1990. In brief, T2 cells are cultured in RPMI1640 with 10% FBS, and grown in 5% CO2 at 37° C. […] The level of stabilized HLA-A2 on the surface of the T2 cells is detected using the pan HLA class I monoclonal antibody W6/32 (European Collection of Animal Cell Cultures (ECACC), Porton Down, Salisbury) that recognizes stabilized HLA-A2 complexes. The primary monoclonal antibody can be labeled or can be detected using, e.g., a labeled goat antimouse IgG (Cambridge Biosciences, Cambridge, United Kingdom) as the second layer. Samples are fixed in 1% paraformaldehyde in PBS prior to analysis and analyzed on a Becton Dickinson FACSCAN®. […]

H-2 Db = target: T2, H-2 Db (Mus musculus, UniProt P01899); experiment: RMA-S binding assay (MHC stabilization, flow cytometry); conditions: for Concentration at FI=0.5: RMA-S cells loaded 16 to 18 h at 37° C, FI = fluorescence with peptide/without peptide - 1; for Binding to H-2 Db (in words): RMA-S cells, FIG. 1
T2 construct: enhance surface expression of the respective MHC class I molecules on these cells by stabilizing the peptide-MHC complex; endogenous in cells; host or cells: RMA-S (H-2b) cells
T2 sequence (P01899 25-362): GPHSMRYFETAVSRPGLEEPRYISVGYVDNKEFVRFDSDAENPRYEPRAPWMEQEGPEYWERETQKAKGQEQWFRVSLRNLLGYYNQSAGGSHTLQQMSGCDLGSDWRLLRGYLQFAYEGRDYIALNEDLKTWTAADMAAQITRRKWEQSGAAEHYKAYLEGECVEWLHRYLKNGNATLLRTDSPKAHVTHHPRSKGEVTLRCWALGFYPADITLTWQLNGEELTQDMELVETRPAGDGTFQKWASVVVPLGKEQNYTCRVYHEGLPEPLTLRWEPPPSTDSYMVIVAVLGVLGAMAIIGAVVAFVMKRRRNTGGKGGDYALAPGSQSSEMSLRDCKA
T2 sequence (P01887 21-119 partner): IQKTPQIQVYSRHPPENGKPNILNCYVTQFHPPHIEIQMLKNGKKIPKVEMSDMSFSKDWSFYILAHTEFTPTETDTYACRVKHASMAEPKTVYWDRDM
Protocol: FIG. 1 is a line graph illustrating results of an RMA-S binding assay. KDR2 and KDR3 bind efficiently to H-2 Db molecules. RMA-S cells were loaded with various peptides for 16 to 18 h at 37° C. Levels of surface class I molecules were assessed by flow cytometric analysis using mouse monoclonal antibodies specific for H-2 Db. FI=Fluoresce measurement after peptides stimulation/Fluoresce measurement without peptide-1. : KDR1, ▴: KDR2, : KDR3, ◯: wild type P53 264-272, : HPV 16 E7 49-57. HPV E7 49-57 and Human P53 264-272 serve as positive and negative control respectively. The results shown here are representative of three separate experiments.
To test the binding affinity of these peptides to H-2 Db, an RMA-S binding experiment was performed, and the FI value in the assay was measured. […] The RMA-Binding assays were performed as previously described (Lyman et al., J. Virol. 76:3125-3134, 2002). Briefly, synthetic peptides were dissolved in dimethyl sulfoxide before dilution. For MHC-binding assays, RMA-S cells were loaded with various peptides for 16 to 18 h at 37° C. Levels of surface class I molecules were assessed by flow cytometric analysis (FACScan; Becton Dickinson) using mouse monoclonal antibodies specific for H-2 Db (Southern Biotech, clone No. 28-14-8). FI=Fluorescence after peptides stimulation/Fluorescence without peptide-1.
Previous data have shown that the HPV16E7 49-57 can bind to H-2 Db molecules efficiently and induce a strong CTL response in B6 mice (Feltkamp et al., Eur. J. Immunol. 23:2242-2249, 1993). HPV16E7 49-57 peptide was used as a positive control; and the human P53 264-272, known to bind HLA-A2 but not H-2 Db, was used as a negative control (FIG. 1).

[1] = system: EL4 cells pulsed with peptides; experiment: 4-hour 51Cr release assay, CTLs from immunized mice, EL4 targets; assay type: cell-based, mouse; conditions: E:T ratio 50:1; for Percentage of lyses by induced CTLs, control: control for EL4 pulsed with peptide; for Percentage of lyses by induced CTLs: targets EL4 pulsed with the vaccinated peptide
Protocol: (§1) FIGS. 4A-D are line graphs illustrating the results of standard 4 hr ^51Cr release test. Three weeks after immunization, spleen cells were prepared from immunized mice (4-5 mice per group) and restimulated with vaccinated peptides in a 24-well plate in the presence of RPMI 1640 (Invitrogen) with 10% FCS. 10% T-stim was added 48 hours later into the culture media and the cells were incubated for 5 days at 37° C. The CTL activity was tested in a 4-hour ^51Cr release assay. Target cells include VEGFR-2/KDR+H5V (H-2d) and bEND3 (H-2b) endothelial cells, VEGFR-2/KDR-EL4 cells pulsed with peptides or EL4 alone. The percentage of specific lysis was calculated using the formula: (experimental release−spontaneous release)/(maximum release−spontaneous release)×100. Upper panel: effector cells from mice immunized with KDR2, Lower panel: effectors from KDR3 immunized mice.
(§2) Chromium (^51Cr) Release Assays were used to determine whether T cells identified as binding to VEGFR-2/KDR specifically targeted endothelial cells. Mice were vaccinated twice with 5 μg GM-CSF, 20 μg anti-CD40 and 100 μg peptide per mice. Briefly, spleen cells were prepared from immunized mice (4-5 mice per group) and restimulated with the vaccinated peptides in 24-well plates in RPMI 1640 (Invitrogen) with 10% FCS. Forty-eight hours later, 10% T-stim (BD Bioscience) was added into the culture media. CTL activity was tested in a 4-hour ^51Cr release assay 5 days later. VEGFR-2/KDR+syngeneic H5V (H-2d), allogeneic bEND3 (H-2b) endothelial cells and VEGFR-2/KDR syngeneic EL4 cells pulsed with peptides or EL4 alone served as target cells. The percentage cytotoxicity was calculated using the formula: (experimental release−spontaneous release)/(maximum release−spontaneous release)×100.

H5V endothelial cells = experiment: 4-hour 51Cr release assay, CTLs from immunized mice, endothelial cell targets; assay type: cell-based, mouse; conditions: for Percentage of lyses by induced CTLs, control: control for H5V; for Percentage of lyses by induced CTLs, control / Percentage of lyses by induced CTLs: E:T ratio 50:1; for Lysis of H5V cells and peptide-pulsed EL4 by induced CTLs (in words): not bEND3 or EL4 alone, FIG. 4; for Percentage of lyses by induced CTLs: targets H5V
Protocol: as §1, §2

[2] = system: IFN-γ secreting spleen cells / DLN cells; experiment: IFN-γ Elispot assay on splenocytes or draining lymph node cells of peptide-vaccinated mice; assay type: in vivo, C57BL/6 mice; conditions: for IFN-γ secreting cells per million fresh DLN cells: stimulated with syngeneic VEGFR-2/KDR expressing H5V cells, FIG. 2C
Source text: FIGS. 2A-C are bar graphs representing the results of IFN-Eli spot assays. Four groups of mice (5 mice per group) were vaccinated with different peptides (KDR1, KDR2, KDR3). Mice were sacrificed, spleen or drained lymph nodes (DLN) cells prepared as described in methods section served as effectors. Syngeneic EL4 cells (3,000 rads) pulsed with peptides or H5V cells after treated with MMC served as stimulators. Irradiated EL4 without peptide or MMC treated allogeneic bEND3 cells as control. Dot bar: EL4 pulsed with irrelevant peptide as negative control; Solid bar: EL4 pulsed with KDR2 or KDR3 respectively; Open bar: EL4 without any peptide; A. Results of fresh spleen cells; B. Results of spleen cells after 1 week restimulation in vitro; C. Cells from fresh drained lymph nodes stimulated with H5V or bEND3 cells.
Mice were immunized with selected peptide, together with murine GM-CSF and anti-mouse CD40 as adjuvants. An emulsion containing 50 μl Incomplete Freud's Adjuvants (IFA, Sigma) with or without 100 […] of peptide and 5 μg murine GM-CSF (Pepro Tech), 20 μg anti-murine CD40 monoclonal antibody (Southern Biotech, Clone number 1C10) was prepared in a final volume of 100 μl. Subcutaneous injections were performed on the tails of the mice with 1 ml syringes and 30 gauge needles. For the Matrigel Plug Assay, two boosts were injected at 4 week intervals.
IFN-γ Elispots assay was performed on draining lymph nodes cells (DLN) or splenocytes collected 2 weeks after vaccination to evaluate the antigen specific immune response against the VEGFR-2/KDR peptides. Elispot plates (Millipore, Bedford, Mass.) were coated with 8 μg of anti-gamma interferon (IFN-γ) antibody per ml in sterile phosphate-buffered saline (PBS) overnight at 4° C. Plates were washed and then blocked with RPMI 1640 with 10% FBS. Fresh splenocytes or cells after 1 week in vitro restimulation were used as effectors. 1 or 5×10^5 effector cells were co-cultured overnight with or without 2×10^5 irradiated (3,000 rads) EL4 cells in 200 μl media at 37° C., 5% CO2 in the presence of appropriate concentration of peptide. When H5V and bEND3 cells in stead of EL4 were used as stimulators, they were treated with 0.1 mg/ml mitomycin C (Sigma, St. Louis) for half an hour at 37° C., then wash three times with PBS. 5×10^4H5V or bEND3 cells were co-cultured overnight with 2×10^5 draining lymph nodes cells. Spots were developed as previously described using biotin-conjugated anti-cytokine antibodies (Endogen, Boston, Mass.) and streptavidin-horseradish peroxidase in 1% BSA-PBS.

Substance | Concentration at FI=0.5 (H-2 Db) | Binding to H-2 Db (in words) (H-2 Db) | Percentage of lyses by induced CTLs, control [1] | Percentage of lyses by induced CTLs [1] [%] | Percentage of lyses by induced CTLs, control (H5V endothelial cells) [%] | Lysis of H5V cells and peptide-pulsed EL4 by induced CTLs (in words) (H5V endothelial cells) | Percentage of lyses by induced CTLs (H5V endothelial cells) [%] | IFN-γ secreting fresh spleen cells relative to irrelevant HPV E7 peptide / background ([2]; FIG. 2A) | IFN-γ secreting cells per million fresh DLN cells [2] [per million cells] | also measured
AMFFWLLLV [KDR775, human VEGFR-2/KDR peptide] |  |  |  |  |  |  |  |  |  | Affinity for MHC molecules relative to the other peptides (in words) (HLA-A2): substantially higher affinity
FSNSTNDILI [KDR3, murine VEGFR-2/KDR peptide, location 615-624] | about 3 μM | bind well | 0% | 21 | 3 | can lyse | 13 | about 6 times | 161 | Number of IFN-γ secreting fresh spleen cells after pulsing with peptide ([2]; fresh spleen cells of vaccinated mice, FIG. 2A): 176
HPV16E7 49-57: Human Papilloma Virus 16E7 49-57 peptide, known H-2 Db binder, positive control (RAHYNIVTF) [reference compound] | about 12.5 μM |  |  |  |  |  |  |  |  | 
LLSEKNVVKI [KDR1, murine VEGFR-2/KDR peptide, location 1033-1042] |  |  |  |  |  |  |  |  |  | IFN-γ secreting cells relative to background after 1 week in vitro culture with the vaccinated peptide ([2]; spleen cells restimulated 1 week in vitro, FIG. 2B): remained negative
P53 264-272: human P53 264-272 peptide, binds HLA-A2 but not H-2 Db, negative control [reference compound] | > 200 µM | does not bind |  |  |  |  |  |  |  | 
VILTNPISM [KDR2, murine VEGFR-2/KDR peptide, location 400-408] | about 24 μM | bind well | about 8% | 25 | ~1 | can lyse | 28 | about 50 times | 360 | 
